pIC50: −log10 of the molar value. Like-named read-outs stand apart in the source and are kept apart here.
Assays:
Human Jak2 kinase domain = Human Jak2 kinase domain (Homo sapiens (Human), UniProt O60674); experiment: Jak2 Inhibition Assay (Omnia kinase assay); assay type: biochemical; settings: read-out: Jak2 Enzyme IC50
Experimental: The assays described in Examples C, D, E and F for the determination of JAK1, JAK2, JAK3 and Tyk2 kinase activity, respectively, utilized the Omnia® Kinase fluorescence peptide substrate-based technology (Invitrogen). […] The reactions were therefore read at excitation 360 nm and emission was measured at 485 nm every 50 seconds for 45 minutes using a PerkinElmer EnVision Multilabel Plate Reader.
The final buffer conditions for each of the JAK1, JAK2, JAK3 and Tyk2 assays were as follows: 25 mM HEPES, pH 7.4, 10 mM MgCl2, 0.01% Triton X-100 and 1 mM DTT.
Two-μL aliquots of these were transferred to a fresh plate for a ten-fold intermediate dilution with assay buffer. Five-μL aliquots of the diluted compounds were then transferred to 20-μL of assay mixtures described in Examples C, D, E and F for a final concentration of DMSO of 2%. […] For each plate, percent of control (POC) values were calculated for each well according to the following equation:
[formula] • where • Xmax=Average Uninhibited Controls • Xmin=Average Background IC50's were estimated from the POC's using a standard 4-parameter logistic model:
[formula] • where • A=Minimum Y (Bottom Asymptote) • B=Maximum Y (Top Asymptote) • C=EC50 • D=Slope Factor • X=Compound Concentration (nM) • Y=POC
The IC50 is defined as the concentration of inhibitor at which the POC equals 50 for the fitted curve.
Compounds of Formula I were screened for their ability to inhibit Jak2 using the general enzyme inhibition assay method, in which the assay mixture contained 500 μM ATP, 10 μM Omnia® Y7 peptide (Catalog # IVGN KNZ3071C, Invitrogen Corporation, Carlsbad, Calif.) and 4 nM Jak2 in a total volume of 20 μL. Human Jak2 kinase domain comprising amino acids 808-1132 was purchased from Invitrogen Corporation, Carlsbad, Calif. (catalog # IVGN PV4210).

[1] = target: TrkA (histidine-tagged recombinant human TrkA, cytoplasmic domain) (Homo sapiens (Human), UniProt P04629); experiment: TrkA ELISA Assay; assay type: biochemical; settings: Table 1; ELISA, 500 μM ATP; read-out: TrkA Enzyme IC50
Experimental: An enzyme-linked immunosorbant assay (ELISA) was used to assess TrkA kinase activity in the presence of inhibitors. Immulon 4HBX 384-well microtiter plates (Thermo part #8755) were coated with a 0.025 mg/mL solution of poly (Glu, Ala, Tyr; 6:3:1; Sigma P3899). […] The reaction mixture was removed from the plate by washing with PBS containing 0.1% (v/v) Tween 20. The phosphorylated reaction product was detected using 0.2 μg/mL of a phosphotyrosine specific monoclonal antibody (clone PY20) conjugated to horseradish peroxidase in conjunction with the TMB Peroxidase Substrate System (KPL). After the addition of 1M phosphoric acid, the chromogenic substrate color intensity was quantitated via absorbance at 450 nm.

[2] = Table 1, 500 μM ATP, >1000 nM when >50% inhibition not observed at 1000 nM

Sequence of TrkA (histidine-tagged recombinant human TrkA, cytoplasmic domain) (P04629 440-796): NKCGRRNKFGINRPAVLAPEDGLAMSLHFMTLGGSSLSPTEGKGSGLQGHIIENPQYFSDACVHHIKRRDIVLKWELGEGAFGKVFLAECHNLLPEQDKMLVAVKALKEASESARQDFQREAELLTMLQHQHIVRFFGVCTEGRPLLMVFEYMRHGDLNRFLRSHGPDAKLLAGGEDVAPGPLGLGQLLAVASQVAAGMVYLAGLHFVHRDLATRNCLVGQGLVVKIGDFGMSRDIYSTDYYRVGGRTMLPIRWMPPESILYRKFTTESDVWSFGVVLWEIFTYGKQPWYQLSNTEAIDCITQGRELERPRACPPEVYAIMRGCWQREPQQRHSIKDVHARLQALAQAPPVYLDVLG
Sequence of Human Jak2 kinase domain (O60674 808-1132): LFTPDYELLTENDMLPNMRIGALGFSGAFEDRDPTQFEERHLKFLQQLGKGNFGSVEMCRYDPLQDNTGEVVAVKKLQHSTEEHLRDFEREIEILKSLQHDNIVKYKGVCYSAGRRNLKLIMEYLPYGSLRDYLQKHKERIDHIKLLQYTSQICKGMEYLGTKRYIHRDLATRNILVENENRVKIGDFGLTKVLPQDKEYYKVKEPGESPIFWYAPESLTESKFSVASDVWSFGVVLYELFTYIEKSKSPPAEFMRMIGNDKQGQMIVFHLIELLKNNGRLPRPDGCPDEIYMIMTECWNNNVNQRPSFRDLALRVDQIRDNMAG

Row | SMILES | pIC50 (Human Jak2 kinase domain; [2]) | pIC50 [1] | pIC50 (Human Jak2 kinase domain)
1 | O=C(NC[C@H](O)CO)c1cnn2ccc(N3CCC[C@@H]3c3cc(F)ccc3C(F)(F)F)nc12 [Example 62, N—((S)-2,3-dihydroxypropyl)-5-((R)-2-(5-fluoro-2-(trifluoromethyl)phenyl)pyrrolidin-1-yl)pyrazolo[1,5-a]pyrimidine-3-carboxamide] | < 6.00 | 8.60 | 
2 | O=C(NC[C@@H](O)CO)c1cnn2ccc(N3CCC[C@@H]3c3cc(F)ccc3C(F)(F)F)nc12 [Example 63, N—((R)-2,3-dihydroxypropyl)-5-((R)-2-(5-fluoro-2-(trifluoromethyl)phenyl)pyrrolidin-1-yl)pyrazolo[1,5-a]pyrimidine-3-carboxamide] | < 6.00 | 8.34 | 
3 | NC(=O)c1cnn2ccc(N3CCC[C@@H]3c3cc(F)ccc3C(F)(F)F)nc12 [Example 64, (R)-5-(2-(5-fluoro-2-(trifluoromethyl)phenyl)pyrrolidin-1-yl)pyrazolo[1,5-a]pyrimidine-3-carboxamide] | 6.24 | 8.80 | 
4 | CONC(=O)c1cnn2ccc(N3CCC[C@@H]3c3cc(F)ccc3F)nc12 [Example 65, (R)-5-(2-(2,5-difluorophenyl)pyrrolidin-1-yl)-N-methoxypyrazolo[1,5-a]pyrimidine-3-carboxamide] | < 6.00 | 9.22 | 
5 | O=C(NOCC1CC1)c1cnn2ccc(N3CCC[C@@H]3c3cc(F)ccc3F)nc12 [Example 66, (R)—N-(cyclopropylmethoxy)-5-(2-(2,5-difluorophenyl)pyrrolidin-1-yl)pyrazolo[1,5-a]pyrimidine-3-carboxamide] | < 6.00 | 9.24 | 
6 | CC1(C)CC[C@H](c2cc(F)ccc2F)N1c1ccn2ncc(C(N)=O)c2n1 [Example 67, (R)-5-(5-(2,5-difluorophenyl)-2,2-dimethylpyrrolidin-1-yl)pyrazolo[1,5-a]pyrimidine-3-carboxamide] | < 6.00 | 8.29 | 
7 | CC1(C)CC[C@H](c2cc(F)ccc2F)N1c1ccn2ncc(C(=O)NC3CC3)c2n1 [Example 68, (R)—N-cyclopropyl-5-(5-(2,5-difluorophenyl)-2,2-dimethylpyrrolidin-1-yl)pyrazolo[1,5-a]pyrimidine-3-carboxamide] | < 6.00 | 8.18 | 
8 | CC(C)(CF)NC(=O)c1cnn2ccc(N3CCC[C@@H]3c3cncc(F)c3)nc12 [Example 71, (R)—N-(1-fluoro-2-methylpropan-2-yl)-5-(2-(5-fluoropyridin-3-yl)pyrrolidin-1-yl)pyrazolo[1,5-a]pyrimidine-3-carboxamide] | < 6.00 | 8.06 | 
9 | O=C(NC1CCOCC1)c1cnn2ccc(N3CCC[C@@H]3c3cncc(F)c3)nc12 [Example 72, (R)-5-(2-(5-fluoropyridin-3-yl)pyrrolidin-1-yl)-N-(tetrahydro-2H-pyran-4-yl)pyrazolo[1,5-a]pyrimidine-3-carboxamide] | < 6.00 | 7.35 | 
10 | CONC(=O)c1cnn2ccc(N3CCC[C@@H]3c3cncc(F)c3)nc12 [Example 73, (R)-5-(2-(5-fluoropyridin-3-yl)pyrrolidin-1-yl)-N-methoxypyrazolo[1,5-a]pyrimidine-3-carboxamide] | < 6.00 | 7.31 | 
11 | CONC(=O)c1cnn2ccc(N3CCC[C@@H]3c3cccc(F)c3)nc12 [Example 75] | < 6.00 | 8.16 | 
12 | NC(=O)c1cnn2ccc(N3CCC[C@@H]3c3cc(F)cc(OCCN4CCOCC4)c3)nc12 [Example 76, (R)-5-(2-(3-fluoro-5-(2-morpholinoethoxy)phenyl)pyrrolidin-1-yl)pyrazolo[1,5-a]pyrimidine-3-carboxamide] | < 6.00 | 7.05 | 
13 | COCCOc1cc(F)cc([C@H]2CCCN2c2ccn3ncc(C(=O)NC4CC4)c3n2)c1 [Example 77, (R)—N-cyclopropyl-5-(2-(3-fluoro-5-(2-methoxyethoxy)phenyl)pyrrolidin-1-yl)pyrazolo[1,5-a]pyrimidine-3-carboxamide] | < 6.00 | 8.27 | 
14 | COCCOc1cc(F)cc([C@H]2CCCN2c2ccn3ncc(C(N)=O)c3n2)c1 [Example 78, (R)-5-(2-(3-fluoro-5-(2-methoxyethoxy)phenyl)pyrrolidin-1-yl)pyrazolo[1,5-a]pyrimidine-3-carboxamide] | < 6.00 | 7.46 | 
15 | COc1ncc(F)cc1[C@H]1CCCN1c1ccn2ncc(C(=O)NC3CC3)c2n1 [Example 79, (R)—N-cyclopropyl-5-(2-(5-fluoro-2-methoxypyridin-3-yl)pyrrolidin-1-yl)pyrazolo[1,5-a]pyrimidine-3-carboxamide] |  | 8.89 | 6.16
16 | COc1ncc(F)cc1[C@H]1CCCN1c1ccn2ncc(C(=O)NC(C)(C)C)c2n1 [Example 80, (R)—N-tert-butyl-5-(2-(5-fluoro-2-methoxypyridin-3-yl)pyrrolidin-1-yl)pyrazolo[1,5-a]pyrimidine-3-carboxamide] |  | 8.74 | 6.06
17 | COc1ncc(F)cc1[C@H]1CCCN1c1ccn2ncc(C(=O)NC(C)(C)CF)c2n1 [Example 81, (R)-5-(2-(5-fluoro-2-methoxypyridin-3-yl)pyrrolidin-1-yl)-N-(1-fluoro-2-methylpropan-2-yl)pyrazolo[1,5-a]pyrimidine-3-carboxamide] |  | 8.94 | 6.18
18 | COc1ncc(F)cc1[C@H]1CCCN1c1ccn2ncc(C(N)=O)c2n1 [Example 82, (R)-5-(2-(5-fluoro-2-methoxypyridin-3-yl)pyrrolidin-1-yl)pyrazolo[1,5-a]pyrimidine-3-carboxamide] |  | 8.59 | < 6.00
19 | CONC(=O)c1cnn2ccc(N3CCC[C@@H]3c3cc(F)cnc3OC)nc12 [Example 83, (R)-5-(2-(5-fluoro-2-methoxypyridin-3-yl)pyrrolidin-1-yl)-N-methoxypyrazolo[1,5-a]pyrimidine-3-carboxamide] |  | 8.75 | < 6.00
20 | O=C(NC1CC1)c1cnn2ccc(N3CCC[C@@H]3c3cc(F)cc(OCCN4CCOCC4)c3)nc12 [Example 85, (R)—N-cyclopropyl-5-(2-(3-fluoro-5-(2-morpholinoethoxy)phenyl)pyrrolidin-1-yl)pyrazolo[1,5-a]pyrimidine-3-carboxamide] | < 6.00 | 8.03 | 
21 | NC(=O)c1cnn2ccc(N3CCC[C@@H]3c3cc(F)ccc3OCCN3CCOCC3)nc12 [Example 86, (R)-5-(2-(5-fluoro-2-(2-morpholinoethoxy)phenyl)pyrrolidin-1-yl)pyrazolo[1,5-a]pyrimidine-3-carboxamide] | < 6.00 | 7.57 | 
22 | O=C(NC1CC1)c1cnn2ccc(N3CCC[C@@H]3c3cc(F)ccc3OCCN3CCOCC3)nc12 [Example 87, (R)—N-cyclopropyl-5-(2-(5-fluoro-2-(2-morpholinoethoxy)phenyl)pyrrolidin-1-yl)pyrazolo[1,5-a]pyrimidine-3-carboxamide] | < 6.00 | 7.79 | 
23 | O=C(NOC[C@@H](O)CO)c1cnn2ccc(N3CCC[C@@H]3c3cc(F)ccc3F)nc12 [Example 88, 5-((R)-2-(2,5-difluorophenyl)pyrrolidin-1-yl)-N—((S)-2,3-dihydroxypropoxy)pyrazolo[1,5-a]pyrimidine-3-carboxamide] | < 6.00 | 8.21 | 
24 | COCCOc1ccc(F)cc1[C@H]1CCCN1c1ccn2ncc(C(N)=O)c2n1 [Example 89, (R)-5-(2-(5-fluoro-2-(2-methoxyethoxy)phenyl)pyrrolidin-1-yl)pyrazolo[1,5-a]pyrimidine-3-carboxamide] | < 6.00 | 8.44 | 
25 | CC1(O)CN(C(=O)c2cnn3ccc(N4CCC[C@@H]4c4cncc(F)c4)nc23)C1 [Example 92, (R)-(5-(2-(5-fluoropyridin-3-yl)pyrrolidin-1-yl)pyrazolo[1,5-a]pyrimidin-3-yl)(3-hydroxy-3-methylazetidin-1-yl)methanone] | < 6.00 | 5.99 | 
26 | O=C(c1cnn2ccc(N3CCC[C@@H]3c3cncc(F)c3)nc12)N1CCCC1 [Example 94, (R)-(5-(2-(5-fluoropyridin-3-yl)pyrrolidin-1-yl)pyrazolo[1,5-a]pyrimidin-3-yl)(pyrrolidin-1-yl)methanone] | < 6.00 | 6.25 | 
